According to PMC1192819, “Molecular cloning and characterization of a nuclear androgen receptor activated by 11-ketotestosterone” (Reproductive biology and endocrinology : RB&E, 2005):

Experiments:
stickleback ARβ2 = experiment: ARE-luciferase trans-activation assay, stickleback ARβ2 in transfected HepG2 and ZFL cells; format: cell-based, three-spined stickleback (Gasterosteus aculeatus); settings: 40 h, versus control
Method: Two liver epithelial cell lines were used to test receptor activity. HepG2 cells (ATCC, Manassas, VA) were maintained in DMEM supplemented with 10% FCS and non-essential amino acids. ZFL cells (ATCC) were maintained in 50% L-15 Leibovitz, 15% […] and 35% DMEM supplemented with 10% FCS (Gibco, Paisley, Scotland, UK) and 50 ng ml-1 EGF (Sigma). Cells were cultured at 37°C (HepG2) or 28°C (ZFL) in 5% CO2. The transfection experiments were initiated by replacing the tissue culture medium with fresh phenol-free medium supplemented with charcoal stripped FCS and the cells were seeded on 24-well plates. Transfections were performed at 90–95% confluence using 1,5 μl Lipofectamine 2000 (Invitrogen, Carlsbad, CA, USA) and 0,6 μg DNA per well. Transfected DNA contained 60 ng pRL (Promega), 270 ng androgen response element (ARE) luciferase reporter vector, 270 ng stickleback ARβ2 expression vector or 270 ng human AR expression vector (pCMVhAR) while 270 ng empty TNT cloning vector was used to control background luciferase levels following transfections. Two different ARE containing promoter constructs were tested, one containing 3 separate ARE (HRE; slp-ARU) and a second one construct (slp-HRE2) containing 4 copies of the ARE with high affinity for R1881, a synthetic androgen, and low affinity for dexamethasone, a synthetic glucocorticoid.
After 16 h the transfection medium was replaced with fresh phenol-free medium, supplemented with charcoal stripped FCS, containing different steroid hormones. The cells were exposed to the hormones for 40 h and luciferase levels were detected using the Dual Luciferase Assay kit (Promega) in a TD 20/20 Luminometer (Turner Designs, Sunnyvale, CA). For each cell line, transfection assay was performed for each concentration with n = 4 and the luciferase value of each assay were normalized to its corresponding Renilla luciferase activity. Each experiment was repeated a minimum of 3 times. The fold-induction is presented as luciferase values normalized against the control. The control levels were arbitrarily set to 1.0 for each cell line.

[1] = test system: AR protein and AR mRNA in stickleback kidney; experiment: Hormone regulation of kidney AR protein (radioreceptor assay) and AR mRNA (slot blot); format: in vivo, three-spined stickleback (Gasterosteus aculeatus); settings: data not shown; for regulation of AR protein (radioreceptor assay): sticklebacks exposed for 6 days
Method: (§1) The fish were anesthetized with 0.1% (v/v) 2-phenoxyethanol (Sigma, St. Louis, MO, USA) and implanted intraperitoneally with Silclear silicone tubing (10-mm length, 0.6-mm inner diameter, 1.2-mm outer diameter) containing steroids dissolved in cocoa butter. […] KA was used as this steroid is converted into KT by the fish. Tubes containing cocoa butter alone were used as controls. Following implantation the fish were maintained in 50-liter aquaria containing brackish water (0.5% salinity) at 20°C under LD 16:8 h. At sampling fish were decapitated and the kidneys were excised, frozen using liquid nitrogen, and stored at -70°C. A number of experiments were performed as follows. Spiggin mRNA was measured in post-breeding females that were dissected 2 days following implantation of tubes. Cytosolic androgen-receptors were measured in females and in castrated males. Males were castrated under anesthesia as above, by making a 1.5 mm long incision into the abdominal cavity on each side and removing the testes using forceps. The females and the castrated males were implanted with control and high dose tubes and dissected after 6 days. AR mRNA was studied in females implanted for 12 h, 2 and 16 days (separate experiments) with control and high dose tubes and in males castrated as above and implanted for 10 days with control tubes and high doses of KA or E2.
(§2) Total RNA was extracted using Tri Reagent™ (Sigma). Aliquots of 10 μg of total RNA were mixed with denaturing solution (6 × SSC, 7% (v/v) formaldehyde) and transferred onto a nylon membrane (Amersham Pharmacia Biotech) using a Minifold II Slot Blot Apparatus (Schleicher and Schuell, Keene, NH, USA). Membranes were probed using either a randomly primed [α-^32P]-dCTP radiolabelled AR cDNA fragment (918 base pairs) that was isolated by reverse transcriptase-polymerase chain reaction and sequenced as above, or a randomly primed [α-^32P]-dCTP radiolabelled spiggin-α cDNA. Hybridizations were performed at 65°C overnight (6 × SCC, 0.1% (w/v) SDS, 100 μg ml^-1 tRNA, and 5 × Denhardt's solution). The membranes were washed for 2 × 30 minutes at 42°C and 65°C in 0.1 × SCC, 0.1% (w/v) SDS whereafter Hyperfilm™-MP film was exposed at -70°C. The films were visualized using Curix 60 Film Developer. Following AR and spiggin mRNA determination the membranes were stripped and analyzed for 18S rRNA using a cDNA fragment as internal control. Each AR or spiggin transcript was then semi-quantified using Quantity ONE 4.2.3 (Bio-Rad, Laboratories, Inc, Hercules, CA, USA) in relation to its internal 18S transcript.
Aliquots (250 μl) of the nuclear or cytosolic preparations were added to each tube, the tubes were vortexed and incubated over night at 4°C. To stop the binding reaction, 250 μl DCC was added to each tube. The tubes were vortexed and the suspensions were incubated for 5 min at 4°C, before spinning at 3,000 × g at 4°C for 5 min. The supernatants were decanted into 7 ml scintillation vials, 5 ml of standard scintillation cocktail was added and the radioactivity in each sample was measured in a liquid scintillation counter (Beckman LS 6000SC, Beckman Instruments, Fullerton, CA). The procedure used for the expressed recombinant ARβ2 was modified as follows. […] The expressed proteins were diluted 1:100 and aliquots (100 μl) were added to each reaction tube. The tubes were vortexed and incubated over night at 4°C. To stop the binding reaction, 200 μl DCC was added to each tube. The tubes were vortexed and the suspension were incubated for 5 min at 4°C, before spinning at 3,000 × g at 4°C for 5 min. 250 μl of the supernatant was transferred into 5 ml scintillation vials and 4 ml of standard scintillation cocktail was added before the radioactivity in each sample was measured in a liquid scintillation counter (Wallac 1409, Wallac Oy, Turku, Finland).

rainbow trout ARα = settings: COS-1 cell line; read-out: IC50 (ligand binding); cited from earlier work
[2] = target: T1, AR in stickleback kidney cytosolic extracts (Gasterosteus aculeatus, UniProt Q801Z1); experiment: Ligand competition assay with 1 nM [3H]-DHT, kidney cytosolic extracts; format: binding, three-spined stickleback (Gasterosteus aculeatus)
T1 sequence (Q801Z1 1-682): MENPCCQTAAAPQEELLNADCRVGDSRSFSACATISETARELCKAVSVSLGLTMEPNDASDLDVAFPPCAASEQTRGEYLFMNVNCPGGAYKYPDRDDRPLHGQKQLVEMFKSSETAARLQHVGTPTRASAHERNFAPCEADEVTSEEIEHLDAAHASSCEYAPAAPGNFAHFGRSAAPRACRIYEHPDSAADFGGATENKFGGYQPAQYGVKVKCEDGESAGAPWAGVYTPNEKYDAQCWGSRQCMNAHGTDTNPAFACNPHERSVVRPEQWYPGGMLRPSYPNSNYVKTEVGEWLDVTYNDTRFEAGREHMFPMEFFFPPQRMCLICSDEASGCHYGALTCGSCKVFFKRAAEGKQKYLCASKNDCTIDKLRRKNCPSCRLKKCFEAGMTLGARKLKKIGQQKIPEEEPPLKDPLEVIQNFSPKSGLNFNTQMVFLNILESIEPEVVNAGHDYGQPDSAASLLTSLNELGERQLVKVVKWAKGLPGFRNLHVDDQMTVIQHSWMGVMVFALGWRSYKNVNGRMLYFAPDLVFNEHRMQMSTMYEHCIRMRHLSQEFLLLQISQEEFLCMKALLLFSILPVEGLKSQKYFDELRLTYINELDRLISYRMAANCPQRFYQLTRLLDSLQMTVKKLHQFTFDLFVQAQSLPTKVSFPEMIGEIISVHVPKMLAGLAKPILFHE
Method: (§3) The steroid specificity of receptor binding was examined using a competitive binding assay. […] Following incubation, the reaction was terminated by addition of DCC and centrifugation and the specific binding in each tube was determined as described above.

[3] = test system: spiggin mRNA in adult female stickleback kidney; experiment: Induction of spiggin mRNA in stickleback kidney after steroid implants (slot blot); format: in vivo, three-spined stickleback (Gasterosteus aculeatus)
Method: as §1, §2

[4] = test system: spiggin mRNA in adult female stickleback kidney; settings: cited from earlier work
[5] = target: T2, stickleback ARβ2 (reticulocyte lysate) (Gasterosteus aculeatus, UniProt Q801Z2); experiment: Ligand competition assay with 1 nM [3H]-DHT, ARβ2 containing reticulocyte extract; format: binding, three-spined stickleback (Gasterosteus aculeatus)
T2 sequence (Q801Z2 1-735): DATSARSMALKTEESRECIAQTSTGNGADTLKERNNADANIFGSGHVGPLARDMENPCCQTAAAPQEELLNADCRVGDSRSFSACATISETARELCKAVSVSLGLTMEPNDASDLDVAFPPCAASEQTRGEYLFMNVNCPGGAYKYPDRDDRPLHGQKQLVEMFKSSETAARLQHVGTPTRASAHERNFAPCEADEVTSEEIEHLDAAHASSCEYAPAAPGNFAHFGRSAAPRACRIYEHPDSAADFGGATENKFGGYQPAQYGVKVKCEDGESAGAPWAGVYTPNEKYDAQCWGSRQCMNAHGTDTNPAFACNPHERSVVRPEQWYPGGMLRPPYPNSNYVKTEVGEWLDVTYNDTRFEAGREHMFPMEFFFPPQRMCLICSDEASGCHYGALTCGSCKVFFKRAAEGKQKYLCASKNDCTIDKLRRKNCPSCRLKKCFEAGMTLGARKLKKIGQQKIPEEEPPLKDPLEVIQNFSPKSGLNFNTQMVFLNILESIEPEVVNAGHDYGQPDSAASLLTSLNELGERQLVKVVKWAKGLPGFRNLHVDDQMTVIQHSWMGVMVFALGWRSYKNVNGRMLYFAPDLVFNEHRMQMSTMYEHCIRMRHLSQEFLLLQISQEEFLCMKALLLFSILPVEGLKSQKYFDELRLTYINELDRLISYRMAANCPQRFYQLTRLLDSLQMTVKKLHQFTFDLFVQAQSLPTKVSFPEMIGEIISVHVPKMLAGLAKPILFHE
Method: The excised AR pBK CMV clones were digested with XbaI and EcoRI and the inserts were gel purified prior to ligation into the pCMV-TNT vector (Promega) between XbaI and EcoRI. […] AR was expressed by introducing the pCMV-TNT into the TNT coupled reticulocyte lysate system (Promega) according to the manufacturer's instructions. The size of the expressed products was determined by addition of S^35-methionin to the reticulocyte lysate system. The obtained protein suspension was analyzed on a denaturing 8% SDS PAGE and the sizes were determined using prestained SDS-PAGE broad range protein molecular weight standard (Bio-Rad) and a control luciferase protein of 62 kDa included in the reticulocyte lysate system (Promega). For use in binding assays AR was expressed in the absence of radioactive S^35-methionein and stored at 4°C until further used in recombinant binding assay experiments.
as §3

| Structure (SMILES) | regulation of AR mRNA (slot blot) [1] | regulation of AR protein (radioreceptor assay) [1] | binding observed (competition for [3H]-DHT) [2] | other results |
| --- | --- | --- | --- | --- |
| C[C@]12CCC(=O)C[C@@H]1CC[C@@H]1[C@@H]2CC[C@]2(C)[C@@H](O)CC[C@@H]12 [DHT, 5α-dihydrotestosterone] | None of the three tested androgens regulated | None of the three tested androgens regulated |  | induction of luciferase activity (stickleback ARβ2; HepG2 cells): 4.1 fold; induction of luciferase activity (stickleback ARβ2; ZFL cells): 4.5 fold; IC50 (rainbow trout ARα): 0.6 nM |
| CC12CCC(=O)C=C1CCC1C2CCC2(C)C1CCC2(O)C(O)CO (stereo not drawn) [20β-S, 17,20β,21-trihydroxy-4-pregnen-3-one] |  |  | not |  |
| C[C@]12CCC(=O)C=C1CC[C@@H]1[C@@H]2C(=O)C[C@]2(C)C(=O)CC[C@@H]12 [KA, 11-ketoandrostenedione] | None of the three tested androgens regulated | None of the three tested androgens regulated |  | effectiveness at increasing kidney spiggin mRNA levels relative to T ([3]; 25 μg implant dose, females): 50 times; increase in spiggin mRNA levels ([3]; females implanted with 25 μg KA, 2 days, versus control): 30 fold; spiggin mRNA induction after longer exposures ([4]; 16 days exposure): only observed with KA |
| C[C@]12CCC(=O)C=C1CC[C@@H]1[C@@H]2[C@@H](O)C[C@@]2(C)[C@H]1CC[C@]2(O)C(=O)CO [F, cortisol] |  |  | not | binding (competition for [3H]-DHT) [5]: poor binding |
| CC(C)C(=O)Nc1ccc([N+](=O)[O-])c(C(F)(F)F)c1 [flutamide] |  |  |  | blocking of androgen induction of spiggin protein and mRNA synthesis ([4]; anti-androgen, ref 25 and Olsson, Berg, Lindberg, unpublished results): can be blocked |
| C[C@@H](O)[C@@]1(O)CC[C@H]2[C@@H]3CCC4=CC(=O)CC[C@]4(C)[C@H]3CC[C@@]21C [17,20β-P, 17,20β-dihydroxy-4-pregnen-3-one] |  |  | not |  |
| C[C@]12CC[C@H]3[C@@H](CCC4=CC(=O)CC[C@@]43C)[C@@H]1CC[C@@H]2O [T, testosterone] | None of the three tested androgens regulated | None of the three tested androgens regulated |  | spiggin induction ([3]; 1 μg implant dose, females): not inducing spiggin production |
| C[C@]12CC[C@@H]3c4ccc(O)cc4CC[C@H]3[C@@H]1CC[C@@H]2O [E2, 17β-estradiol] | repressor | repressor |  | EC50 ([5]; read-out: EC50 (competition for [3H]-DHT binding)): 64.61 ± 0.28 nM |
